What is called melting point is the temperature, or range, at which the solid turns liquid. One may read the pKi as the negative decadic logarithm of the Ki, by convention in mol/L. High values mean a small Ki, low ones a large Ki.

pKi: −log10 of the molar value. Where a name gives a salt, the structure may show the parent alone.

Experimental findings from US6815456B2, “Heterocyclyloxy-, -thioxy- and -aminobenzazole derivatives as 5-hydroxytryptamine-6 ligands” (Wyeth, priority 2001, dated 2004) are described below.

Test system in one series: not given
Test: not given
Conditions: not given
As to `O=S(=O)(c1cccc2ccccc12)n1ccc2c(OC3CCNC3)cccc21` (stereo not shown) (as salt: hydrochloride) [Example 6, 1-(1-naphthylsulfonyl)-4-(3-pyrrolidinyloxy)-1H-indole], the melting point was 179 °C (dec.).

Regarding `Cc1nn(C)c(Cl)c1S(=O)(=O)n1ccc2c(OC3CCNC3)cccc21` (stereo not shown) (as salt: hydrochloride) [Example 7, 1-[(5-Chloro-1,3-dimethyl-1H-pyrazol-4-yl)sulfonyl]-4-(3-pyrrolidinyloxy)-1H-indole], the melting point was 100 °C (dec.).

On to `Nc1ccc(S(=O)(=O)n2ccc3c(OC4CCNCC4)cccc32)cc1` (as salt: hydrochloride) [Example 8, 4-{[4-(piperidin-4-yloxy)-1H-indol-1-yl]sulfonyl}aniline], for which the melting point was 117 to 119 °C.

In the case of `Nc1ccc(S(=O)(=O)n2ccc3c(OC4CCCNC4)cccc32)cc1` (stereo not shown) (as salt: hydrochloride) [Example 9, 4-{[4-(piperidin-3-yloxy)-1H-indol-1-yl]sulfonyl}aniline], the melting point is 160 °C (dec.).

In the case of `O=S(=O)(c1cccc2ccccc12)n1ncc2c(OC3CCNC3)cccc21` (stereo not shown) (as salt: trifluoroacetic acid salt) [Example 15, 1-(1-naphthylsulfonyl)-4-(3-pyrrolidinyloxy)-1H-indazole], the melting point fell in the range of 200 to 201 °C.

In turn, `O=S(=O)(c1ccccc1Cl)n1ncc2c(OC3CCNC3)cccc21` (stereo not shown) (as salt: trifluoroacetic acid salt) [Example 16, 1-[(2-Chlorophenyl)sulfonyl]-4-(3-pyrrolidinyloxy)-1H-indazole] gave a melting point of 161 to 163 °C.

In turn, `O=S(=O)(c1ccccc1F)n1ncc2c(OC3CCNC3)cccc21` (stereo not shown) (as salt: trifluoroacetic acid salt) [Example 17, 1-[(2-fluorophenyl)sulfonyl]-4-(3-pyrrolidinyloxy)-1H-indazole] returned a melting point of 162 to 163 °C.

`O=S(=O)(c1ccc(Cl)s1)n1ncc2c(OC3CCNC3)cccc21` (stereo not shown) (as salt: trifluoroacetic acid salt) [Example 19, 1-[(5-Chlorothien-2-yl)sulfonyl]-4-(3-pyrrolidinyloxy)-1H-indazole]: the melting point was 102 to 103 °C.

Take `CC(=O)Nc1ccc(S(=O)(=O)n2ncc3c(OC4CCNC4)cccc32)cc1Cl` (stereo not shown) (as salt: trifluoroacetic acid salt) [Example 20, N-(2-Chloro-4-{[4-(3-pyrrolidinyloxy)-1H-indazol-1-yl]sulfonyl}phenyl)acetamide]: the melting point lay within 68 to 72 °C.

With `O=S(=O)(c1cccc2cccnc12)n1ncc2c(OC3CCNC3)cccc21` (stereo not shown) (as salt: trifluoroacetic acid salt) [Example 22, 8-{[4-(3-pyrrolidinyloxy)-1H-indazol-1-yl]sulfonyl}quinoline], the melting point came to 79 °C.

For another series, the target named is T1, human cloned 5-HT6 receptors (Homo sapiens, UniProt P50406).
T1 construct: expressed in transfected cells; host or cells: HeLa cells
T1 sequence (P50406 whole entry): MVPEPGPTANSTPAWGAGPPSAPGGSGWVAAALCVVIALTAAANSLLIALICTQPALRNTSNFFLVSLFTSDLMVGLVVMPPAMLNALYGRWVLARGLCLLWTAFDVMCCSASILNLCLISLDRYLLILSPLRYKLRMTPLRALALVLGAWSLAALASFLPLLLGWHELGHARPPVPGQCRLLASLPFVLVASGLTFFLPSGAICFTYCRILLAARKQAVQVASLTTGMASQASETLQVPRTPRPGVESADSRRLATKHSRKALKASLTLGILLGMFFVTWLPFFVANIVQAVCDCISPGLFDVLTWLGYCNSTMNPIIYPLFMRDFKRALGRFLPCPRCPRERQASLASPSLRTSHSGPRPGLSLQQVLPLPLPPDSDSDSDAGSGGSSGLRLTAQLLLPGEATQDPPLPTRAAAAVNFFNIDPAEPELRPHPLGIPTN
Kind of series: 5-HT6 binding affinity, [3H]-LSD displacement on membranes of Hela cells expressing human cloned 5-HT6 receptors. The conditions noted are these: [3H]-LSD 3.0 nM, Hela cell membranes, 120 min at room temperature. As for the experimental part: The affinity of test compounds for the serotonin 5-HT6 receptor is evaluated in the following manner. Cultured Hela cells expressing human cloned 5-HT6 receptors are harvested and centrifuged at low speed (1,000×g) for 10.0 min to remove the culture media. The harvested cells are suspended in half volume of fresh physiological phosphate buffered saline solution and recentrifuged at the same speed. This operation is repeated. The collected cells are then homogenized in ten volumes of 50 mM Tris.HCl (pH 7.4) and 0.5 mM EDTA. The homogenate is centrifuged at 40,000×g for 30.0 min and the precipitate is collected. The obtained pellet is resuspended in 10 volumes of Tris.HCl buffer and recentrifuged at the same speed. The final pellet is suspended in a small volume of Tris.HCl buffer and the tissue protein content is determined in aliquots of 10-25 μl volumes. Bovine Serum Albumin is used as the standard in the protein determination according to the method described in Lowry et al., J. Biol. Chem., 193:265 (1951). The volume of the suspended cell membranes is adjusted to give a tissue protein concentration of 1.0 mg/ml of suspension. The prepared membrane suspension (10 times concentrated) is aliquoted in 1.0 ml volumes and stored at −70° C. until used in subsequent binding experiments.
Binding experiments are performed in a 96 well microtiter plate format, in a total volume of 200 μl. […] The test compounds are added in 20.0 μl volume.
The reaction is allowed to proceed in the dark for 120 min at room temperature, at which time, the bound ligand-receptor complex is filtered off on a 96 well unifilter with a Packard Filtermate® 196 Harvester. The bound complex caught on the filter disk is allowed to air dry and the radioactivity is measured in a Packard TopCount® equipped with six photomultiplier detectors, after the addition of 40.0 μl Microscint®-20 scintillant to each shallow well. The unifilter plate is heat-sealed and counted in a PackardTopCount® with a tritium efficiency of 31.0%.
Binding in the presence of varying concentrations of test compound is expressed as a percentage of specific binding in the absence of test compound. The results are plotted as log % bound versus log concentration of test compound. […] A linear regression line of data points is plotted, from which the IC50 value is determined and the Ki value is determined based upon the following equation: […]
where L is the concentration of the radioactive ligand used and KD is the dissociation constant of the ligand for the receptor, both expressed in nM.
On to `O=S(=O)(c1ccccc1)n1ccc2c(OC3CCNC3)cccc21` (stereo not shown) [Example 3, 1-(Phenylsulfonyl)-4-(3-pyrrolidinyloxy)-1H-indole Hydrochloride], for which the negative logarithm of the Ki (pKi) was 8.10.

Take `O=S(=O)(c1cccs1)n1ccc2c(OC3CCNC3)cccc21` (stereo not shown) [Example 4, 4-(3-pyrrolidinyloxy)1-(thien-2-ylsulfonyl)-1H-indole]: the pKi is 7.60.

`Nc1ccc(S(=O)(=O)n2ccc3c(OC4CCNC4)cccc32)cc1` (stereo not shown) [Example 5, 4-{[4-(3-pyrrolidinyloxy)-1H-indol-1-yl]sulfonyl}aniline] had a pKi of 8.30.

In the case of `O=S(=O)(c1cccc2ccccc12)n1ccc2c(OC3CCNC3)cccc21` (stereo not shown) [Example 6, 1-(1-naphthylsulfonyl)-4-(3-pyrrolidinyloxy)-1H-indole], the pKi is 7.89.

Compound `Nc1ccc(S(=O)(=O)n2ccc3c(OC4CCNCC4)cccc32)cc1` [Example 8, 4-{[4-(piperidin-4-yloxy)-1H-indol-1-yl]sulfonyl}aniline] gave a pKi of 8.52.

As for `Nc1ccc(S(=O)(=O)n2ccc3c(OC4CCCNC4)cccc32)cc1` (stereo not shown) [Example 9, 4-{[4-(piperidin-3-yloxy)-1H-indol-1-yl]sulfonyl}aniline], the pKi was 7.96.

Compound `O=S(=O)(c1ccccc1)n1ncc2c(OC3CCNC3)cccc21` (stereo not shown) [Example 14, 1-(Phenylsulfonyl)-4-(pyrrolidin-3-yloxy)-1H-indazole, trifluoroacetic acid salt] gave a pKi of 7.72.

Turning to `O=S(=O)(c1cccc2ccccc12)n1ncc2c(OC3CCNC3)cccc21` (stereo not shown) [Example 15, 1-(1-naphthylsulfonyl)-4-(3-pyrrolidinyloxy)-1H-indazole], the pKi is 8.52.

Consider `O=S(=O)(c1ccccc1Cl)n1ncc2c(OC3CCNC3)cccc21` (stereo not shown) [Example 16, 1-[(2-Chlorophenyl)sulfonyl]-4-(3-pyrrolidinyloxy)-1H-indazole], for which the pKi was 7.72.

Regarding `O=S(=O)(c1ccccc1F)n1ncc2c(OC3CCNC3)cccc21` (stereo not shown) [Example 17, 1-[(2-fluorophenyl)sulfonyl]-4-(3-pyrrolidinyloxy)-1H-indazole], the pKi is 7.60.

With `COc1ccc(S(=O)(=O)n2ncc3c(OC4CCNC4)cccc32)cc1OC` (stereo not shown) [Example 18], the pKi is 7.12.

`O=S(=O)(c1ccc(Cl)s1)n1ncc2c(OC3CCNC3)cccc21` (stereo not shown) [Example 19, 1-[(5-Chlorothien-2-yl)sulfonyl]-4-(3-pyrrolidinyloxy)-1H-indazole] gave a pKi of 8.05.

`CC(=O)Nc1ccc(S(=O)(=O)n2ncc3c(OC4CCNC4)cccc32)cc1Cl` (stereo not shown) [Example 20, N-(2-Chloro-4-{[4-(3-pyrrolidinyloxy)-1H-indazol-1-yl]sulfonyl}phenyl)acetamide] gave a pKi of 7.92.

Consider `CC(=O)Nc1ccc(S(=O)(=O)n2ncc3c(OC4CCNC4)cccc32)cc1` (stereo not shown) [Example 21], for which the pKi was 6.91.

For the compound `O=S(=O)(c1cccc2cccnc12)n1ncc2c(OC3CCNC3)cccc21` (stereo not shown) [Example 22, 8-{[4-(3-pyrrolidinyloxy)-1H-indazol-1-yl]sulfonyl}quinoline], the pKi was 7.66.
